{"source": "paper PMC7018803", "about": "“A randomized, placebo-controlled, phase 1 study to evaluate the effects of TAK-063 on ketamine-induced changes in fMRI BOLD signal in healthy subjects” (Psychopharmacology, 2019)", "key": {"anesthetized rats": {"tested_on": "anesthetized rats", "set-up": "method as in Tomimatsu et al. [2016]", "settings": "ref Tomimatsu et al. [2016], cited from earlier work"}, "[1]": {"assay": "Pharmacokinetics of TAK-063 in plasma after single oral dose", "format": "in vivo, human"}, "[2]": {"tested_on": "patients with schizophrenia", "settings": "cited from earlier work"}, "healthy male subjects [3]": {"tested_on": "healthy male subjects", "assay": "Ketamine-induced changes in fMRI BOLD signal during resting state", "format": "in vivo, human", "protocol": "(§1) Subjects checked in on day − 1 of each treatment period during which vital signs, electrocardiogram (ECG), and laboratory safety tests were repeated. On day 1 of each treatment period, subjects received a 3-, 10-, or 30-mg TAK-063 dose or placebo tablets. Participants then relaxed, slept, or watched movies while remaining in the research environment. Ketamine (0.12 mg/kg intravenous bolus over 60 s followed by a continuous infusion of 0.31 mg/kg/h over approximately 150 min) was administered 4 h after TAK-063 or placebo (Fig. 1). This ketamine dose was based on a previous study that achieved steady-state concentrations of 75 ng/mL and provided a robust BOLD signal with minimal psychotomimetic symptoms (De Simoni et al. [2013]).\n(§2) The scanning protocol for the current study was very comprehensive and included multiple MR approaches. This publication reports the BOLD fMRI data for the working memory task, but also resting state fMRI. The magnetic scanning portion of the neuroimaging test battery was initiated 20 min before ketamine dosing. Imaging was performed using a 3 Tesla Siemens Trio scanner. The MR scanning protocol was initiated 20 min before ketamine dosing; prior to scanning, a structural magnetization prepared rapid gradient echo (MPRAGE) scan was collected. As part of the scanning protocol, each subject received 20 min of scanning − 10 min arterial spin labeling (ASL) plus 10 min resting BOLD prior to ketamine infusion. After ketamine infusion, the resting state fMRI BOLD acquisition continued for an additional 10 min. Next, a Spatial Working Memory task-induced fMRI BOLD acquisition was performed for 15 min. Following these BOLD acquisitions, another 10 min ASL scan was acquired and a 10-min T1 relaxometry scan was conducted. The MR scanning sequence ended with a 5-min MPRAGE acquisition.\nFifty sequential gradient-echo echoplanar images (EPIs) sensitive to blood oxygenation level-dependent (BOLD) signal were collected in contiguous slices of 6-mm thickness, with 3000-ms repetition time, 40-ms echo time, 20 × 20-cm field of view, a 64 × 64 image matrix, 70° flip angle, and an in-plane resolution of 3 × 3 mm. A working memory challenge based on the expectancy A-X Continuous Performance Test (AX-CPT) paradigm was presented. The AX-CPT task was implemented in Eprime and presents 144 trials in four blocks of 36 trials. Before scanning, participants practiced the task (Barch et al. [2001]; MacDonald et al. [2003]).\nWe conducted a number of pre-processing steps to standardize examination of data after acquisition. These steps included (a) using the anatomical image (T1 weighted MPRAGE acquired for each subject at the beginning of the imaging session) to determine the parameters for spatial normalization to the EPI template image supplied with statistical parametric mapping (SPM) using a 12-parameter transformation; (b) registering functional images to correct for subject movement during the experimental paradigm; (c) normalizing functional images to transform images from analyzed subjects into the same standard space; (d) smoothing images (8-mm full width at half maximum [FWHM]) to minimize normalization artifacts and improve signal to noise ratio; (e) applying a high pass filter of 1200 s to the data following spatial smoothing to minimize the influence of very low frequency noise present in fMRI BOLD data without distorting the ketamine response profile. […]"}, "healthy male subjects [4]": {"tested_on": "healthy male subjects", "assay": "Ketamine-induced changes in fMRI BOLD signal during working memory task (AX-CPT)", "format": "in vivo, human", "protocol": "as §1\nas §2, with “acquisition. […]” for “acquisition.”\nThe functional imaging analyses for the working memory task was performed using SPM8 (Wellcome Department of Cognitive Neurology, London, UK). […] Data from each subject for each task were analyzed with a fixed box-car function convolved with a model hemodynamic response function. […]"}}, "data": [{"smiles": "COc1cn(-c2ccc(-n3cccn3)cc2F)nc(-c2ccnn2-c2ccccc2)c1=O", "note": "[TAK-063]", "values": [{"measurement": "ketamine-induced increases in percent BOLD signal change in cortical regions", "setting": "anesthetized rats; anesthetized rats, hippocampus, cingulate and retrosplenial cortex", "value": "reduced"}, {"measurement": "percent BOLD signal change during the resting state in caudate putamen and substantia nigra", "setting": "anesthetized rats; rat", "value": "increased"}, {"measurement": "Dose proportionality of Cmax and AUC", "setting": "[1]; dose range 3-30 mg", "value": "close to dose proportional increase in exposure"}, {"measurement": "median tmax", "setting": "[1]; single oral dose, plasma, 3-30 mg", "value": 3, "unit": "h"}, {"measurement": "safety and tolerability in clinical studies", "setting": "[2]; ref Goldsmith et al. [2017], Tsai et al. [2016]", "value": "safe and well tolerated"}, {"measurement": "effects in patients with schizophrenia", "setting": "[2]; ref Macek et al. [2016a], [b]", "value": "increases in electroencephalogram (EEG) gamma power, improvements in mismatch negativity, and some improvements in cognition"}, {"measurement": "effect sizes at the 10-mg dose", "setting": "healthy male subjects [3]; 10 mg, ketamine-induced BOLD changes, resting state", "value": "generally smaller relative to the effects of other dose groups"}, {"measurement": "effect on ketamine-induced changes in resting state fMRI BOLD signals", "setting": "healthy male subjects [3]; many key regions examined, 3-30 mg", "value": "meaningful effect attenuating ketamine-induced changes"}, {"measurement": "effect size in right substantia nigra, left thalamus and left ventrolateral prefrontal cortex", "setting": "healthy male subjects [4]; 10 mg, working memory task, small non-negative effects", "value": "< 0.15"}, {"measurement": "effect in left amygdala", "setting": "healthy male subjects [4]; 30 mg, working memory task", "value": "small non-negative effect"}, {"measurement": "effect on Cohen's effect size for fMRI BOLD signal during working memory task", "setting": "healthy male subjects [4]; across all doses", "value": "decreased the Cohen’s effect size for fMRI BOLD signal in many brain regions"}]}]}
